Assay results published in patent US20260008775A1, “AZOLE MODULATORS OF CHOLESTEROL BIOSYNTHESIS AND THEIR USE FOR PROMOTING REMYELINATION” (GENENTECH, INC., priority 2022, published 2026).
Where two headings read alike, the source gives them in different places.

What was measured:
[1] = test system: zymostenol accumulation (EBP) in EpiSC-derived OPCs; assay: GC/MS-based sterol profiling, zymostenol accumulation in EpiSC-derived OPCs; format: cell-based, mouse; settings: for EC50: EpiSC-derived OPCs, 24 hr, 8 doses from 0.15 nM to 333 nM, read-out: Mouse Zymostenol GCMS EC50
Method in brief: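 Zymostenol level is expressed relative to that after 24 h with 100 nM positive-control reference, measured by full-scan GC/MS (m/z 458) with cholesterol-d7 internal standard after BSTFA derivatisation. Cells were EpiSC-derived OPCs, 100,000/well in N2B27 without growth factors, treated 24 h, from two or more independent platings.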

[2] = target: human emopamil binding protein and human 7-dehydrocholesterol reductase (hEBP-DHCR7) (Homo sapiens (Human), UniProt Q15125); assay: hEBP-DHCR7 radioligand binding assay (filter binding, membranes of co-expressing HEK293 cells); settings: competition with [3H] radioligand, 8 doses 0.06 to 5000 nM, Ki calculated from IC50
human emopamil binding protein and human 7-dehydrocholesterol reductase (hEBP-DHCR7), sequence (Q15125 whole entry): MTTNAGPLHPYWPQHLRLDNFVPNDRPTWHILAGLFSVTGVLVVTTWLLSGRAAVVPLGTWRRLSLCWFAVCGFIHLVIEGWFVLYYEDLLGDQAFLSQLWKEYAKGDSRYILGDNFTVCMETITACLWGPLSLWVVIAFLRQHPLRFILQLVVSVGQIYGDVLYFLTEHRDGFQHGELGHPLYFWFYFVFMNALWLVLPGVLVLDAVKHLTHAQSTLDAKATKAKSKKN
Method in brief: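 Compound, either single dose 1 μM or eight 5-fold dilutions from 0.06 to 5000 nM, competed with a [3H]-labelled ligand added at 25 nM for binding to co-expressing HEK293 membranes. IC50 came from nonlinear regression, with full block and DMSO as controls, then Cheng–Prusoff conversion to Ki.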

EpiSC-derived OPCs = assay: In vitro phenotypic screening of OPCs, MBP high-content imaging (percentage of oligodendrocytes); format: cell-based, mouse; settings: for EC50: 3 days, MBP stain, dose-response 0.5 nM to 1000 nM, read-out: OPC EC50
Protocol: To assess effects of treatments on OPCs, all treatments were assayed in two or more independent platings of epiblast stem cell-derived OPCs (EpiSC). EpiSC-derived OPCs were obtained using in vitro differentiation protocols and culture conditions described previously (Najm et al, 2011, Nature Methods). OPCs were expanded and frozen down in aliquots. OPCs were thawed into growth conditions for at least one passage before use in further assays.
EpiSC-derived OPCs were grown and expanded in poly-L-ornithine (PO) and laminin-coated flasks in N2B27 media (DMEM/F12 (Gibco), N2-MAX (R&D Systems), B-27 (ThermoFisher), and GlutaMax (Gibco)) supplemented with FGF2 (10 μg/mL, R&D systems, 233-FB-025) and PDGF-AA (10 μg/mL, R&D systems, 233-AA-050) before harvesting for experiments. The cells were seeded onto poly-L-ornithine or poly-D-lysine coated CellCarrier Ultra plates (PerkinElmer) coated with laminin (Sigma, L2020) at a density of 150,000/cm^2 in N2B27 media without growth factors. For dose-response testing, a 1000× compound stock in dimethyl sulphoxide (DMSO) was added to assay plates, resulting in 8-point dose curves with final concentrations between 1000 nM and 0.5 nM. Positive controls and DMSO vehicle controls were included in each assay plate. Cells were incubated under standard conditions (37° C., 5% CO2) for 3 days and fixed with 4% paraformaldehyde (PFA) in phosphate buffered saline (PBS) for 20 min. Fixed plates were washed with PBS, permeabilized with 0.1% Triton X-100, and blocked with 10% donkey serum (v/v) in PBS for 40 min. Then, cells were labelled with MBP antibodies (Abcam, ab7349; 1:200) for 2 h at room temperature, washed with PBS, and stained with Alexa Fluor conjugated secondary antibodies (1:500) for 45 min. Nuclei were visualized by DAPI staining (Sigma; […]), followed by further PBS washes.
Cells and cell culture plates were imaged on the Operetta High Content Imaging and Analysis system (PerkinElmer). Analysis (PerkinElmer Harmony and Columbus software) began by identifying intact nuclei stained by DAPI. The peri-nuclear region of each cell was then cross-referenced with the mature myelin protein (MBP) stain to identify oligodendrocyte nuclei, and from this the percentage of oligodendrocytes was calculated. EC50 values were calculated using The Levenberg-Marquardt algorithm to fit a Hill equation to dose-response data (0.5 nM to 1000 nM).

Structure (SMILES) | EC50 ([1]; Mus musculus, 24 h) [nM] | Ki [2] [nM] | EC50 (EpiSC-derived OPCs; Mus musculus, 72 h) [nM] | EC50 [1] [nM] | EC50 (EpiSC-derived OPCs) [nM] | fold decrease in activity in the mouse zymostenol assay ([1]; as compared to compound 29*) [fold] | fold decrease in activity in the OPC assay (EpiSC-derived OPCs; as compared to compound 29*) [fold]
FC(F)(F)c1cccc(-c2nc([C@H]3CC[C@H](N4CCCOCC4)C3)n(C3CC3)n2)n1 (single isomer, unassigned) [9*] | 21.4 | 113 | 73.4 |  |  |  | 
FC(F)(F)c1cccc(-c2nc([C@H]3CC[C@@H](N4CCCOCC4)C3)n(C3CC3)n2)n1 (single isomer, unassigned) [10*] | 18 | 95.8 | 54.2 |  |  |  | 
FC(F)(F)c1cccc(-c2nc([C@@H]3CC[C@@H](N4CCCOCC4)C3)n(C3CC3)n2)n1 (single isomer, unassigned) [11*] | 19.7 | 134 | 108 |  |  |  | 
FC(F)(F)c1cccc(-c2nc([C@@H]3CC[C@H](N4CCCOCC4)C3)n(C3CC3)n2)n1 (single isomer, unassigned) [12*] | 64 | 120 | 63.8 |  |  |  | 
CC(C)n1nc(-c2cccc(C(F)(F)F)c2)nc1[C@@H]1CC[C@@H](N2CCOCC2)C1 (single isomer, unassigned) [21*] | 7.71 | 27.1 | 51.7 |  |  |  | 
CC(C)n1nc(-c2cccc(C(F)(F)F)c2)nc1[C@@H]1CC[C@H](N2CCOCC2)C1 (single isomer, unassigned) [22*] | 1.33 | 10.9 | 6.73 |  |  |  | 
CC(C)n1nc(-c2cccc(C(F)(F)F)c2)nc1[C@H]1CC[C@H](N2CCOCC2)C1 (single isomer, unassigned) [23*] |  | 15.5 |  | 13.1 | 132 |  | 
CC(C)n1nc(-c2cccc(C(F)(F)F)c2)nc1[C@H]1CC[C@H](N2CCOCC2)C1 (single isomer, unassigned) [24*] |  | 8.9 |  | 1.65 | 11.3 |  | 
CC(C)n1nc(-c2cc(C(F)(F)F)ccn2)nc1[C@@H]1CC[C@H](N2CCOCC2)C1 (single isomer, unassigned) [28*] | 8.11 | 29.9 | 80.4 |  |  |  | 
CC(C)n1nc(-c2cncc(C(F)(F)F)c2)cc1[C@H]1[C@@H]2CC(N3CCCOCC3)C[C@@H]21 (single isomer, unassigned) [30*] | 14.8 | 32.5 | 90 |  |  |  | 
CC(C)n1nc(-c2cncc(C(F)(F)F)c2)cc1[C@H]1[C@@H]2C[C@@H](N3C[C@H]4C[C@@H]3CO4)C[C@@H]21 (single isomer, unassigned) [35*] | 30 | 112 | 175 |  |  |  | 
CC(C)n1nc(-c2cncc(C(F)(F)F)c2)cc1[C@H]1[C@@H]2C[C@@H](N3C[C@@H]4C[C@H]3CO4)C[C@@H]21 (single isomer, unassigned) [36*] | 230 | 211 | 144 |  |  |  | 
CC(C)n1nc(-c2cncc(C(F)(F)F)c2)cc1[C@H]1[C@@H]2C[C@H](N3C[C@H]4C[C@@H]3CO4)C[C@@H]21 (single isomer, unassigned) [37*] | 18 | 33 | 98 |  |  |  | 
CC(C)n1nc(-c2cncc(C(F)(F)F)c2)cc1[C@H]1[C@@H]2C[C@H](N3C[C@@H]4C[C@H]3CO4)C[C@@H]21 (single isomer, unassigned) [38*] | 9.32 | 47.6 | 71 |  |  |  | 
CC(C)n1nc(-c2cncc(C(F)(F)F)c2)cc1[C@H]1[C@@H]2C[C@@H](N3CCO[C@@H](C)C3)C[C@@H]21 (single isomer, unassigned) [39*] | 255 | 771 | 523 |  |  |  | 
CC(C)n1nc(-c2cncc(C(F)(F)F)c2)cc1[C@H]1[C@@H]2C[C@@H](N3CCO[C@H](C)C3)C[C@@H]21 (single isomer, unassigned) [40*] | 78 | 111 | 325 |  |  |  | 
CC(C)n1nc(-c2cncc(C(F)(F)F)c2)cc1[C@H]1[C@@H]2C[C@H](N3CCO[C@@H](C)C3)C[C@@H]21 (single isomer, unassigned) [41*] | 2.86 | 22.6 | 7.75 |  |  |  | 
CC(C)n1nc(-c2cncc(C(F)(F)F)c2)cc1[C@H]1[C@@H]2C[C@H](N3CCO[C@H](C)C3)C[C@@H]21 (single isomer, unassigned) [42*] | 9 | 23.6 | 43.9 |  |  |  | 
CC(C)n1nc(-c2cccc(C(F)(F)F)c2)nc1[C@H]1[C@@H]2C[C@@H](N3CCCOCC3)C[C@@H]21 [Compound 14, 4-((1R,3s,5S,6r)-6-(1-isopropyl-3-(3-(trifluoromethyl)phenyl)-1H-1,2,4-triazol-5-yl)bicyclo[3.1.0]hexan-3-yl)-1,4-oxazepane] | 40.2 |  | 81.3 |  |  |  | 
CC(C)n1nc(-c2ccc(C(F)(F)F)nc2)nc1[C@H]1[C@@H]2C[C@H](N3CCCOCC3)C[C@@H]21 [Compound 15, 4-((1R,3r,5S,6r)-6-(1-isopropyl-3-(6-(trifluoromethyl)pyridin-3-yl)-1H-1,2,4-triazol-5-yl)bicyclo[3.1.0]hexan-3-yl)-1,4-oxazepane] | 5.98 |  | 22.4 |  |  |  | 
CC(C)n1nc(-c2ccc(C(F)(F)F)nc2)nc1[C@H]1[C@@H]2C[C@@H](N3CCCOCC3)C[C@@H]21 [Compound 16, 4-((1R,3s,5S,6r)-6-(1-isopropyl-3-(6-(trifluoromethyl)pyridin-3-yl)-1H-1,2,4-triazol-5-yl)bicyclo[3.1.0]hexan-3-yl)-1,4-oxazepane] | 203 |  | 333 |  |  |  | 
CC(C)n1nc(-c2cccc(OC(F)(F)F)c2)nc1[C@H]1[C@@H]2C[C@H](N3CCCOCC3)C[C@@H]21 [Compound 17, 4-((1R,3r,5S,6r)-6-(1-isopropyl-3-(3-(trifluoromethoxy)phenyl)-1H-1,2,4-triazol-5-yl)bicyclo[3.1.0]hexan-3-yl)-1,4-oxazepane] | 1.74 |  | 4.16 |  |  |  | 
CC(C)n1nc(-c2cccc(OC(F)(F)F)c2)nc1[C@H]1[C@@H]2C[C@@H](N3CCCOCC3)C[C@@H]21 [Compound 18, 4-((1R,3s,5S,6r)-6-(1-isopropyl-3-(3-(trifluoromethoxy)phenyl)-1H-1,2,4-triazol-5-yl)bicyclo[3.1.0]hexan-3-yl)-1,4-oxazepane] | 52.8 |  | 78.5 |  |  |  | 
CC(C)n1nc(-c2cncc(C(F)(F)F)c2)cc1[C@H]1[C@@H]2C[C@H](N3CCOCC3)C[C@@H]21 [Compound 171, 4-((1R,3r,5S,6r)-6-(1-Isopropyl-3-(5-(trifluoromethyl)pyridin-3-yl)-1H-pyrazol-5-yl)bicyclo[3.1.0]hexan-3-yl)morpholine] | 5.88 |  | 16.6 |  |  |  | 
CC(C)n1nc(-c2ccc(C(F)(F)F)cn2)cc1[C@H]1[C@@H]2C[C@H](N3CCOCC3)C[C@@H]21 [Compound 174, 4-((1R,3r,5S,6r)-6-(1-Isopropyl-3-(5-(trifluoromethyl)pyridin-2-yl)-1H-pyrazol-5-yl)bicyclo[3.1.0]hexan-3-yl)morpholine] | 7.51 |  | 35 |  |  |  | 
CC(C)n1nc(-c2cc(C(F)(F)F)ncn2)cc1[C@H]1[C@@H]2C[C@@H](N3CCOC[C@H]3C)C[C@@H]21 [Compound 202, (R)-4-((1R,3s,5S,6R)-6-(1-isopropyl-3-(6-(trifluoromethyl)pyrimidin-4-yl)-1H-pyrazol-5-yl)bicyclo[3.1.0]hexan-3-yl)-3-methylmorpholine] | 4.76 |  | 21.6 |  |  |  | 
CC(C)n1nc(-c2cnc(N)c(C(F)(F)F)c2)cc1[C@H]1[C@@H]2C[C@H](N3CCCOCC3)C[C@@H]21 [Compound C, reference compound] | 15.6 |  | 75 |  |  | 4.9 | 3.8
